Tests used:
HEK cells [1] = conditions: literature (32); cited from earlier work
HEK cells [2] = test: Bleach rate in HEK cells; format: cell-based, human; conditions: for bleach rate: HEK cells, 7 W/cm^2
Method: The dibutyl (VFx.4.Cl) dyes stain the cell membranes of HEK293 cells when loaded at a concentration of 2 μM for 15 min at 37° C. in buffer with 0.1% DMSO as cosolvent (FIG. 9A, and FIG. 10). […] The bleach rates of the probes were tested in HEK cells and compared with di-4-ANEPPS. The bleach rates for VF1.4.Cl, VF2.4.Cl, and VF2.1.Cl at 7 W/cm^2 were measured to be 3.9±0.1×10^−2 s^−1, 1.8±0.1×10^−2 s^−1, and 8.0±0.1×10^−3 s^−1, respectively.
For studies to determine excitation sensitivity of dyes, illumination was provided by a Polychrom IV light source (T.I.L.L. Photonics GMBH) with a mechanical shutter (Uniblitz VS25). For all other studies, light was provided by an Xenon arc lamp powered by an Optiquip Power supply (Optiquip) with a mechanical shutter controlled by a Lambda 10-2 controller (Sutter). Light from the Xenon arc lamp was filtered through a 480 nm filter (30 nm bandpass, Chroma), a 510 nm dichroic (Semrock), a 530 nm emission filter (50 nm bandpass, Semrock), and focused through a 40×/1.4 oil objective. For di-4-ANEPPS imaging, a 625 nm emission filter with a 50 nm bandpass was used. Bleaching studies used identical illumination conditions (480/30 nm excitation, 510 nm dichroic, 7 W/cm^2 output) and were corrected by normalizing for the extinction coefficient at the excitation wavelengths (465-495 nm).

HEK293 cells [3] = conditions: typical values for di-4-ANEPPS; cited from earlier work
HEK cells [4] = test: Excitation wavelength dependence of voltage response in HEK cells; format: cell-based, human; conditions: 100 mV depolarizing steps, excitation 445 to 500 nm in 5 nm increments for VF2.4.Cl
Source text: The ΔF/F for VF2.4.Cl is relatively insensitive to the excitation wavelength. As opposed to di-4-ANEPPS and other electrochromic dyes (ref the biochemistry paper and the ANINNE6 2004 Denk paper), which are highly sensitive to excitation wavelength, PeT-based sensors yield fluorescent responses which are invariant across their excitation spectra. To establish the invariant nature of the fluorescence response, HEK cells were loaded, as before, with VF2.4.Cl and subjected to depolarizing steps of 100 mV, each time varying the excitation wavelength. […] In contrast, di-4-ANEPPS varies by nearly 100%. Excitation at the red edge of the spectrum gives a maximal response whereas excitation at the blue edge gives a response that is some 10- to 20-fold less than the maximal response.
The fluorescence response of VF2.4.Cl to voltage changes is insensitive to the excitation wavelength, as is true for PeT-based probes, such as fluo-3 and Calcium Green-1. We assayed the wavelength dependence of VF2.4.Cl by changing the excitation wavelength in 5-nm steps and determined that the fluorescence response of VF2.4.Cl to a 100-mV depolarization from a holding potential of −60 mV varied only about 15% when testing wavelengths from 445 to 500 nm (FIG. 11C). […]

HEK293 cells [5] = test: Voltage sensitivity of fluorescence in voltage-clamped HEK cells (whole-cell recording); format: cell-based, human
Source text: Membrane voltage of cells loaded with VF1.4.Cl or VF2.4.Cl were controlled by making tight-seal whole-cell recordings. Cells were maintained at a holding potential of −60 mV and stepped for 50 ms to various depolarizing and hyperpolarizing potentials (FIG. 5A), while simultaneously acquiring epifluorescence images. For both sensors, depolarizing steps result in fluorescence increases while hyperpolarizing steps decrease fluorescence intensity, in keeping with our proposed mechanism. […] For di-4-ANEPPS, typical values are 0.08-0.12% per mV. The larger changes for VF1.4.Cl and VF2.4.Cl compared to di-4-ANEPPS are somewhat expected, since a PeT-based voltage sensor samples the entire emission spectrum, whereas electrochromic dyes are limited to the edge of the spectrum only. For both probes, the voltage responses are linear across the physiologically relevant ranges of −100 mV to +100 mV. To assess the speed of the optical response to voltage, VF2.4.Cl signals were monitored in response to voltage steps of 100 mV from a holding potential of −60 mV.
We characterized the voltage sensitivity of all three indicators by making tight-seal whole-cell recordings of HEK293 cells stained with the VF sensors. Cells were voltage-clamped at −60 mV holding potential and sequentially stepped to depolarizing and hyperpolarizing potentials at 20-mV increments (FIG. 9B). For all three dyes, depolarizing steps produced fluorescence increases, whereas hyperpolarizing steps produced fluorescence decreases, in keeping with the proposed PeT mechanism. The fluorescence response is linear over the range of −100 mV to +100 mV (FIG. 9C), with voltage sensitivities ΔF/F per 100 mV of 20±1% for VF1.4.Cl and 25±1% for VF2.4.Cl. This statistically significant increase in voltage sensitivity (P<0.05, two-tailed Student t test) is expected upon increasing the length of the molecular wire, and is 2.5- to 4-times more sensitive than di-4-ANEPPS, which, in our hands, gives sensitivities of between 6% and 10% ΔF/F per 100 mV. […] To investigate the speed of response of VF probes, we again made whole-cell recordings of cells stained with VF2.4.Cl, applied 100-mV depolarizing steps from a holding potential of −60 mV, and recorded both the electrophysiological signals and the optical signals.
Electrophysiological recordings of HEK293 cells and cultured neurons were performed with an Axopatch 200A or 200B amplifier (Molecular Devices) at room temperature. The signals were digitized with Digidata 1332A and recorded with pCLAMP 9 software (Molecular Devices) on a PC. Analysis of electrophysiological data was done with AxoGraph X (AxoGraphX), pCLAMP 9, and/or ClampFit (Molecular Devices). For most experiments the extracellular solution consisted of (in mM) 145 NaCl, 20 glucose, 10 HEPES, 3 KCl, 2 CaCl2, 1 MgCl2 (pH 7.35, 310 mOsm). The intracellular solution contained (in mM) 115 potassium gluconate, 10 BAPTA tetrapotassium salt, 10 HEPES, 5 NaCl, 10 KCl, 2 ATP disodium salt, 0.3 GTP trisodium salt (pH 7.25, 290 mOsm).
For studies to determine excitation sensitivity of dyes, illumination was provided by a Polychrom IV light source (T.I.L.L. Photonics GMBH) with a mechanical shutter (Uniblitz VS25). For all other studies, light was provided by an Xenon arc lamp powered by an Optiquip Power supply (Optiquip) with a mechanical shutter controlled by a Lambda 10-2 controller (Sutter). […]

[6] = Absorbance and emission spectra in aqueous buffer with Triton X-100; format: physicochemical; conditions: 5 mM sodium phosphate, pH 9, 0.1% Triton X-100
Method: FIG. 8A, FIG. 8B, and FIG. 8C show the normalized absorbance and emission spectra for exemplary compounds of the invention in 5 mM sodium phosphate, pH 9 with 0.1% Triton X-100. Black lines are absorbance spectra; grey lines are emission spectra. a) VF1.4.Cl, b) VF2.4.Cl, and c) VF2.1.Cl.
All dyes feature emission and excitation profiles typical of dichlorofluoresceins (VF1.4.Cl: λmax=521 nm, ε=93,000 M^−1·cm^−1, λem=534 nm, Φ=0.24; VF2.4.Cl: λmax=522 nm, ε=97,000 M^−1·cm^−1, λem=536 nm, Φ=0.054; VF2.1.Cl: λmax=522 nm, ε=98 000 M^−1·cm^−1, λcm=535 nm, Φ=0.057, 5 mM sodium phosphate, pH 9, 0.1% Triton X-100) (FIG. 8).
UV absorbance and fluorescence spectra were recorded on a Cary 3E (Varian) and Fluorolog 2 (Spex) fluorimeter, respectively. Analytical, semi-preparative, and preparative HPLCs were performed on Agilent HPLCs, with Luna C18(2) columns (Phenomenex) using water (solvent A) and acetonitrile (solvent B) with 0.05% TFA as an additive. Low resolution ESI mass spectrometry was performed on an Agilent LC/MSD Trap XCT coupled to an Agilent HPLC. High resolution mass spectra were acquired on a ThermoFisher Orbitrap XL hybrid mass spectrometer. ^1H NMR spectra were collected in CDCl3 or d6-DMSO (Cambridge Isotope Laboratories, Cambridge, Mass.) at 25° C. on a 400 Varian Mercury Plus or Jeol ECA 500 spectrometer at the Department of Chemistry and Biochemistry NMR Facility at the University of California, San Diego. All chemical shifts are reported in the standard δ notation of parts per million using the peak of residual proton signals of CDCl3 or d6-DMSO as an internal reference.

[7] = test system: cultured hippocampal neurons; conditions: cultured hippocampal neurons (25); cited from earlier work

Row | Compound | variation of response over excitation spectrum (HEK cells [1]) [%] | bleach rate (HEK cells [2]) | sensitivity ΔF/F, typical values (HEK293 cells [3]) | variation of fractional fluorescence response across excitation spectrum (HEK cells [4]) [%] | voltage sensitivity ΔF/F per 100 mV (HEK293 cells [5]; HEK293 cells voltage-clamped at −60 mV holding potential) [%] | sensitivity, fractional fluorescence change (ΔF/F) versus change in membrane potential (HEK293 cells [5]; HEK cells, holding potential −60 mV) [% per mV] | Φ [6] | ε [6] | λem [6] [nm] | λmax [6] [nm] | bleach rate, fold smaller than di-4-ANEPPS (HEK cells [2]; identical illumination conditions) | ΔF/F for action potentials [7]
1 | CCCCN(CCCC)c1ccc2cc(/C=C/c3cc[n+](CCCS(=O)(=O)[O-])cc3)ccc2c1 [di-4-ANEPPS] | ~100 | 6.9±0.1×10^−2 s^−1 | 0.08-0.12 % per mV | ~100 | – | – | – | – | – | – | – | –
2 | CCCCN(CCCC)c1ccc(/C=C/c2ccc(-c3c4cc(Cl)c(=O)cc-4oc4cc(O)c(Cl)cc34)c(S(=O)(=O)O)c2)cc1 [VF1.4.Cl, (E)-5-(4-(dibutylamino)styryl)-2-(2,7-dichloro-6-hydroxy-3-oxo-3H-xanthen-9-yl)benzenesulfonic acid] | – | 3.9±0.1×10^−2 s^−1 | – | – | 20±1 | 0.20±0.01 | 0.24 | 93,000 M^−1·cm^−1 | 534 | 521 | two- | –
3 | Cc1ccc(N(CC(=O)O)CC(=O)O)c(OCCOc2cc(-c3c4cc(Cl)c(=O)cc-4oc4cc(O)c(Cl)cc34)ccc2N(CC(=O)O)CC(=O)O)c1 [fluo-3] | – | – | – | – | – | – | – | – | – | – | – | up to 150%

Source: US11187660B2, “Fluorescent probes for monitoring voltage by photo-induced electron transfer” (The Regents of the University of California, priority 2011, dated 2021)
